This assay deals with fully phosphorylated, active Mouse ERK2 protein (Mus musculus (Mouse), UniProt P63085). The assay can be described thus: Active ERK2 Assay (IMAP format). It is filed as biochemical. The settings on record: read-out: AERK2 IC50. On the procedure: Activated ERK2 activity was also determined in the IMAP assay format using the procedure outlined above. […] Reactions proceeded for 30 minutes before termination by addition of 60 μl IMAP detection beads in binding buffer. Plates were read as above after 30 minute binding equilibration.
Sequence of fully phosphorylated, active Mouse ERK2 protein (P63085 whole entry): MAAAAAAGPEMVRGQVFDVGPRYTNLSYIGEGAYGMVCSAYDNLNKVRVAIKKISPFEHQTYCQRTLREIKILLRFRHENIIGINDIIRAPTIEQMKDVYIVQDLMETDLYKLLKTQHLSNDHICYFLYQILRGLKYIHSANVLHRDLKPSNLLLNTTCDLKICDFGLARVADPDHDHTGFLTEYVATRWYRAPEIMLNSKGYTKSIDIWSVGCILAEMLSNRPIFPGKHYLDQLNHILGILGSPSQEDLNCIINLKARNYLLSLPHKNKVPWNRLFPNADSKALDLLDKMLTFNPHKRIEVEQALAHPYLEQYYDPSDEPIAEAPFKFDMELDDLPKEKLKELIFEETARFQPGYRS

“And” between values parts separate entries of the source, which are not always exact repeats. Equal entries are not always repeated.

In the case of `CC(C)(C)OC(=O)N1CCC(O)(c2nccs2)CC1` [Example 132, 4-Hydroxy-4-thiazol-2-yl-piperidine-1-carboxylic acid tert-butyl ester], the IC50 – broadly, the concentration that gives 50% inhibition – fell in the range of 160 to 18000 pM.

As to `CNC(=O)c1n[nH]c2ccc(NC(=O)C3CCN(CC(=O)N4CCC(C#Cc5ncccn5)CC4)C3)cc12` (centres unmarked) [Example 142, 5-({1-[2-oxo-2-(4-pyrimidin-2-ylethynyl-piperidin-1-yl)-ethyl]-pyrrolidine-3-carbonyl}-amino)-1H-indazole-3-carboxylic acid methylamide], the IC50 is 160 to 18000 pM. Turning to `CNC(=O)c1n[nH]c2ccc(NC(=O)[C@@H]3CCN(CC(=O)N4C[C@@H]5C[C@H]4CN5c4ccc(-c5ncccn5)cc4)C3)cc12` [Example 152], the half-maximal inhibitory concentration (IC50) fell in the range of 160 to 18000 pM. The result for `CNC(=O)c1n[nH]c2ccc(NC(=O)[C@@H]3CCN(CC(=O)N4C[C@@H]5C[C@H]4CN5c4ccc(-c5ncc(C)cn5)cc4)C3)cc12` [Example 154] reads 160 to 18000 pM; that for `CNC(=O)c1n[nH]c2ccc(NC(=O)[C@@H]3CCN(CC(=O)N4CC=C(c5nccs5)CC4)C3)cc12` [Example 168], 160 to 18000 pM; that for `CNC(=O)c1n[nH]c2ccc(NC(=O)[C@@H]3CCN(CC(=O)N4CCC(c5ccc(-c6ncccn6)cc5)CC4)C3)cc12` [Example 176], 160 to 18000 pM.

Regarding `O=C(Nc1ccc2[nH]nc(-c3ccncc3)c2c1)[C@@H]1CCN(CC(=O)N2C[C@@H]3C[C@H]2CN3c2ccc(-c3ncc(F)cn3)cc2)C1` [Example 183], the half-maximal inhibitory concentration (IC50) was 160 to 18000 pM and 160 to 1500 pM and 160 pM. With `O=C(Nc1ccc2[nH]nc(-c3ccc(F)cc3)c2c1)[C@@H]1CCN(CC(=O)N2C[C@@H]3C[C@H]2CN3c2ccc(-c3ncccn3)cc2)C1` [Example 184], the IC50 was 160 to 18000 pM and 160 to 1500 pM. The result for `O=C(Nc1ccc2[nH]nc(-c3ccncc3)c2c1)[C@@H]1CCN(CC(=O)N2CCN(c3ccc(-c4ncc(F)cn4)cc3)CC2)C1` [Example 186] reads 160 to 18000 pM and 160 to 1500 pM and 780 pM. The figure for `C=Cc1cnc(N2C[C@@H]3C[C@H]2CN3C(=O)CN2CC[C@@H](C(=O)Nc3ccc4[nH]nc(-c5ccncc5)c4c3)C2)nc1` [Example 250] is 160 to 18000 pM; for `O=C(CN1CCC(CF)(C(=O)Nc2ccc3[nH]nc(-c4ccc(F)cc4)c3c2)C1)N1C[C@@H]2C[C@H]1CN2c1ccc(-c2ncccn2)cc1` (some centres unmarked) [Example 251] it is 160 to 18000 pM. The result for `C=CCC1(C(=O)Nc2ccc3[nH]nc(-c4ccncc4)c3c2)CCN(CC(=O)N2CCN(c3ccc(-c4cnccn4)cc3)CC2)C1` (centres unmarked) [Example 261] reads 160 to 18000 pM and 160 to 1500 pM. For the compound `COCC1(C(=O)Nc2ccc3[nH]nc(-c4ccncc4)c3c2)CCN(CC(=O)N2CCN(c3ccc(-c4ncccn4)cc3)CC2)C1` (centres unmarked) [Example 264], the IC50 fell in the range of 160 to 18000 pM. The result for `O=C(CN1CCC(CF)(C(=O)Nc2ccc3[nH]nc(-c4ccncc4)c3c2)C1)N1C[C@@H]2C[C@H]1CN2c1ccc(-c2ncccn2)cc1` (some centres unmarked) [Example 269] reads 160 to 18000 pM.

In the case of `C=CCC1(C(=O)Nc2ccc3[nH]nc(-c4ccncc4)c3c2)CCN(CC(=O)N2C[C@@H]3C[C@H]2CN3c2ccc(-c3ncc(F)cn3)cc2)C1` (some centres unmarked) [Example 271], the half-inhibitory concentration (IC50) was 160 to 18000 pM.

As to `O=C(CN1CCC(CF)(C(=O)Nc2ccc3[nH]nc(-c4ccncc4)c3c2)C1)N1CCN(c2nccs2)CC1` (centres unmarked) [Example 282], the IC50 was 160 to 18000 pM. For `O=C(CN1CCC(CN2CCOCC2)(C(=O)Nc2ccc3[nH]nc(-c4ccncc4)c3c2)C1)N1CCN(c2nccs2)CC1` (centres unmarked) [Example 286], the IC50 lay in the range of 160 to 18000 pM. The figure for `C=CCC1(C(=O)Nc2ccc3[nH]nc(-c4ccncc4)c3c2)CCN(CC(=O)N2CCN(c3ccc(-c4ncccn4)cc3)CC2)C1` (centres unmarked) [Example 289] is 160 to 18000 pM; for `CCCC1(C(=O)Nc2ccc3[nH]nc(-c4ccncc4)c3c2)CCN(CC(=O)N2CCN(c3ccc(-c4ncccn4)cc3)CC2)C1` (centres unmarked) [Example 290] it is 160 to 18000 pM; for `C#CCC1(C(=O)Nc2ccc3[nH]nc(-c4ccncc4)c3c2)CCN(CC(=O)N2CCN(c3ccc(-c4ncccn4)cc3)CC2)C1` (centres unmarked) [Example 292] it is 160 to 18000 pM. In the case of `C=CCC1(C(=O)Nc2ccc3[nH]nc(-c4ccncc4)c3c2)CCN(CC(=O)N2CCN(c3ccc(-c4ncc(F)cn4)cc3)CC2)C1` (centres unmarked) [Example 294], the IC50 was in the range of 160 to 18000 pM. The figure for `COCC1(C(=O)Nc2ccc3[nH]nc(-c4ccncc4)c3c2)CCN(CC(=O)N2CCN(c3ccc(-c4ncc(F)cn4)cc3)CC2)C1` (centres unmarked) [Example 302] is 160 to 18000 pM. Take `COCC1(C(=O)Nc2ccc3[nH]nc(-c4ccncc4)c3c2)CCN(CC(=O)N2C[C@@H]3C[C@H]2CN3c2ccc(-c3ncc(F)cn3)cc2)C1` (some centres unmarked) [Example 303]: the concentration for half-maximal inhibition (IC50) lay in the range of 160 to 18000 pM. Turning to `COCC1(C(=O)Nc2ccc3[nH]nc(-c4ccncc4)c3c2)CCN(CC(=O)N2CCN(c3ccc(-c4ncccn4)cn3)C[C@H]2C)C1` (some centres unmarked) [Example 304], the IC50 lay in the range of 160 to 18000 pM. The result for `COCC1(C(=O)Nc2ccc3[nH]nc(-c4ccncc4)c3c2)CCN(CC(=O)N2CC=C(c3nccs3)CC2)C1` (centres unmarked) [Example 306] reads 160 to 18000 pM; that for `O=C(Nc1ccc2[nH]nc(-c3ccncc3)c2c1)[C@@H]1CCN(CC(=O)N2CCc3ccccc3C2)C1` [Example 332], 160 to 18000 pM. Consider `O=C(Nc1ccc2[nH]nc(-c3ccncc3)c2c1)[C@@H]1CCN(CC(=O)N2CCc3ncccc3C2)C1` [Example 333], for which the half-inhibitory concentration (IC50) was in the range of 160 to 18000 pM. The result for `CSC1(C(=O)Nc2ccc3[nH]nc(-c4ccc(F)cc4)c3c2)CCN(CC(=O)N2CCN(c3ccc(-c4ncccn4)cc3)CC2)C1` (centres unmarked) [Example 338] reads 160 to 18000 pM. The result for `CCOC1(C(=O)Nc2ccc3[nH]nc(-c4ccnc(C)c4)c3c2)CCN(CC(=O)N2CCN(c3ccc(-c4ncccn4)cc3)CC2)C1` (centres unmarked) [Example 343] reads 160 to 18000 pM; that for `CO[C@@]1(C(=O)Nc2ccc3[nH]nc(-c4ccc(F)cc4)c3c2)CCN(CC(=O)N2CC=C(c3ccc(-c4ncccn4)cc3F)CC2)C1` [Example 606], 160 to 18000 pM. `CON(C(=O)[C@@H]1CCN(CC(=O)N2CC=C(c3ccc(-c4ncccn4)cc3)CC2)C1)c1ccc2[nH]nc(-c3ccncc3)c2c1` [Example 611]: the IC50 was in the range of 160 to 18000 pM. With `CS(=O)(=O)[C@@]1(C(=O)Nc2ccc3[nH]nc(-c4ccnc(C5CC5)c4)c3c2)CCN(CC(=O)N2CC=C(c3ccc(-c4ncccn4)cc3)CC2)C1` [Example 634], the IC50 lay in the range of 160 to 18000 pM. Regarding `CS(=O)(=O)[C@@]1(C(=O)Nc2ccc3[nH]nc(-c4ccnc(C5CC5)c4)c3c2)CCN(CC(=O)N2CCC(c3ccc(-c4ncccn4)cc3)CC2)C1` [Example 635], the half-inhibitory concentration (IC50) was in the range of 160 to 18000 pM. `CS[C@@]1(C(=O)Nc2ccc3[nH]nc(-c4ccnc(C5CC5)c4)c3c2)CCN(CC(=O)N2CC=C(c3ccc(-c4ncccn4)cc3)CC2)C1` [Example 639]: the IC50 lay within 160 to 18000 pM. The figure for `CS[C@@]1(C(=O)Nc2ccc3[nH]nc(-c4ccc(F)cc4)c3c2)CCN(CC(=O)N2CCN(c3ccc(-c4ncccn4)cn3)C[C@H]2C)C1` [Example 641] is 160 to 18000 pM; for `CS[C@@]1(C(=O)Nc2ccc3[nH]nc(-c4ccc(F)cc4)c3c2)CCN(CC(=O)N2CCN(c3ccc(-c4ncccn4)cc3)CC2)C1` [Example 647] it is 160 to 18000 pM.

With `CS[C@@]1(C(=O)Nc2ccc3[nH]nc(-c4ccnc(C5CC5)c4)c3c2)CCN(CC(=O)N2CC=C(c3ccc(-c4ncccn4)cc3F)CC2)C1` [Example 651], the IC50 lay in the range of 160 to 18000 pM. The result for `CO[C@@]1(C(=O)Nc2ccc3[nH]nc(-c4ccc(F)cc4)c3c2)CCN(CC(=O)N2CC=C(c3ccc(-c4ncc(F)cn4)c(F)c3)CC2)C1` [Example 661] reads 160 to 18000 pM.
